Test results reported in PubChem BioAssay AID220 (DTP/NCI, 2004).
“And” between values parts separate entries of the source, which are not always exact repeats. Equal values may be shown once. Inconclusive results are not listed.

Tested on: CD8F1 mice, subcutaneous mammary adenocarcinoma, T/C%
Assay: NCI In Vivo Anticancer Drug Screen. Data for tumor model Mammary Adenocarcinoma CD8F1 (subcutaneous) in CD8F1
Conditions: higher = larger tumour
Procedure, shortened: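 Ratio of treated to vehicle-control outcome, based on either survival or tumor size, in mice bearing transplantable tumors given the test compound.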

[1] = endpoint: median tumor weight (est.), dose: 12.5 mg/kg/injection, schedule: Q07DX005 (ip), vehicle: Klucel (hydroxypropylcellulose) (HPC)
[2] = endpoint: median tumor weight (est.), dose: 25.0 mg/kg/injection, schedule: Q07DX005 (ip), vehicle: Klucel (hydroxypropylcellulose) (HPC)
[3] = endpoint: median tumor weight (est.), dose: 50.0 mg/kg/injection, schedule: Q07DX005 (ip), vehicle: Klucel (hydroxypropylcellulose) (HPC)
[4] = endpoint: median tumor weight (est.), dose: 12.5 mg/kg/injection, schedule: Q07DX005 (ip), vehicle: saline
[5] = endpoint: median tumor weight (est.), dose: 25.0 mg/kg/injection, schedule: Q07DX005 (ip), vehicle: saline

Compound: O=C1c2ccccc2C(=O)c2c(NCCNCCO)ccc(NCCNCCO)c21
- T/C (endpoint: mean tumor weight, dose: 8.3 mg/kg/injection, schedule: Q07DX004 (ip), vehicle: Klucel (hydroxypropylcellulose) (HPC)): 60 % of control
- T/C (endpoint: mean tumor weight, dose: 16.6 mg/kg/injection, schedule: Q07DX004 (ip), vehicle: Klucel (hydroxypropylcellulose) (HPC)): 81 % of control
- T/C (endpoint: mean tumor weight, dose: 31.25 mg/kg/injection, schedule: Q07DX004 (ip), vehicle: Klucel (hydroxypropylcellulose) (HPC)): 25 % of control
- T/C (endpoint: mean tumor weight, dose: 62.5 mg/kg/injection, schedule: Q07DX004 (ip), vehicle: Klucel (hydroxypropylcellulose) (HPC)): 59 % of control
- T/C (endpoint: mean tumor weight, dose: 125.0 mg/kg/injection, schedule: Q07DX004 (ip), vehicle: Klucel (hydroxypropylcellulose) (HPC)): 37 % of control
- T/C (endpoint: median tumor weight (est.), dose: 2.0 mg/kg/injection, schedule: Q07DX005 (ip), vehicle: saline): 74 % of control
- T/C (endpoint: median tumor weight (est.), dose: 4.0 mg/kg/injection, schedule: Q04DX005 (ip), vehicle: water): 97 % of control
- T/C (endpoint: median tumor weight (est.), dose: 4.0 mg/kg/injection, schedule: Q07DX004 (ip), vehicle: water): 74 % of control
- T/C (endpoint: median tumor weight (est.), dose: 4.0 mg/kg/injection, schedule: Q07DX005 (ip), vehicle: saline): 92 % of control
- T/C (endpoint: median tumor weight (est.), dose: 4.0 mg/kg/injection, schedule: Q07DX005 (ip), vehicle: water): 93 % of control
- T/C (endpoint: median tumor weight (est.), dose: 8.0 mg/kg/injection, schedule: Q04DX005 (ip), vehicle: water): 62 % of control
- T/C (endpoint: median tumor weight (est.), dose: 8.0 mg/kg/injection, schedule: Q07DX004 (ip), vehicle: water): 69 % of control
- T/C (endpoint: median tumor weight (est.), dose: 8.0 mg/kg/injection, schedule: Q07DX005 (ip), vehicle: saline): 92 % of control
- T/C (endpoint: median tumor weight (est.), dose: 15.63 mg/kg/injection, schedule: Q04DX005 (ip), vehicle: Klucel (hydroxypropylcellulose) (HPC)): 30 % of control
- T/C (endpoint: median tumor weight (est.), dose: 15.63 mg/kg/injection, schedule: Q07DX004 (ip), vehicle: Klucel (hydroxypropylcellulose) (HPC)): 33 % of control
- T/C (endpoint: median tumor weight (est.), dose: 16.0 mg/kg/injection, schedule: Q04DX005 (ip), vehicle: water): 66 % of control
- T/C (endpoint: median tumor weight (est.), dose: 16.0 mg/kg/injection, schedule: Q07DX004 (ip), vehicle: water): 72 % of control
- T/C (endpoint: median tumor weight (est.), dose: 16.0 mg/kg/injection, schedule: Q07DX005 (ip), vehicle: saline): 84 % of control
- T/C (endpoint: median tumor weight (est.), dose: 16.12 mg/kg/injection, schedule: Q04DX005 (ip), vehicle: Klucel (hydroxypropylcellulose) (HPC)): 9 % of control
- T/C (endpoint: median tumor weight (est.), dose: 16.12 mg/kg/injection, schedule: Q07DX004 (ip), vehicle: Klucel (hydroxypropylcellulose) (HPC)): 17 % of control
- T/C (endpoint: median tumor weight (est.), dose: 31.25 mg/kg/injection, schedule: Q04DX005 (ip), vehicle: Klucel (hydroxypropylcellulose) (HPC)): 11 % of control
- T/C (endpoint: median tumor weight (est.), dose: 32.0 mg/kg/injection, schedule: Q01DX001 (ip), vehicle: water): 63 % of control
- T/C (endpoint: median tumor weight (est.), dose: 32.0 mg/kg/injection, schedule: Q04DX005 (ip), vehicle: water): 18 % of control
- T/C (endpoint: median tumor weight (est.), dose: 32.0 mg/kg/injection, schedule: Q07DX004 (ip), vehicle: water): 44 % of control
- T/C (endpoint: median tumor weight (est.), dose: 32.0 mg/kg/injection, schedule: Q07DX005 (ip), vehicle: saline): 56 % of control
- T/C (endpoint: median tumor weight (est.), dose: 62.5 mg/kg/injection, schedule: Q07DX005 (ip), vehicle: Klucel (hydroxypropylcellulose) (HPC)): 10 % of control
- T/C (endpoint: median tumor weight (est.), dose: 64.0 mg/kg/injection, schedule: Q07DX004 (ip), vehicle: water): 7 % of control
- T/C (endpoint: median tumor weight (est.), dose: 64.0 mg/kg/injection, schedule: Q07DX005 (ip), vehicle: water): 19 % of control

Compound: CC[C@@]1(O)C[C@H](OC2CC(N(C)C)C(OC3CC(O)C(OC4CC(O)C(O)C(C)O4)C(C)O3)C(C)O2)c2c(cc3c(c2O)C(=O)c2c(O)ccc(O)c2C3=O)[C@H]1C(=O)OC (stereo partly drawn)
- T/C (endpoint: median tumor weight (est.), dose: 0.75 mg/kg/injection, schedule: Q07DX005 (ip), vehicle: other): 122 % of control
- T/C (endpoint: median tumor weight (est.), dose: 3.0 mg/kg/injection, schedule: Q07DX005 (ip), vehicle: other): 84 % of control

Compound: COC1C(O)C(C)OC(OC2C(Oc3cccc4c(O)c5c(=O)oc6ccc(C)c7c(=O)oc(c34)c5c67)OC(C)C(O)C2O)C1O (stereo not drawn)
- T/C [1]: 73 % of control
- T/C [2]: 75 % of control
- T/C [3]: 50 % of control

Compound: C=C(C)C12CC(C)C34OC5(CCCCCCCC(C)C6C(C)C(OC(=O)c7ccccc7)C(O)(C(O)C7(COC(=O)CCCCCCCCCCCCCCC)OC7C3C1O5)C64)O2 (stereo not drawn)
- T/C (endpoint: mean tumor weight, dose: 25.0 micrograms/kg/injection, schedule: Q01DX009 (ip), vehicle: Klucel (hydroxypropylcellulose) (HPC)): 82 % of control
- T/C (endpoint: mean tumor weight, dose: 50.0 micrograms/kg/injection, schedule: Q01DX009 (ip), vehicle: Klucel (hydroxypropylcellulose) (HPC)): 150 % of control
- T/C (endpoint: mean tumor weight, dose: 100.0 micrograms/kg/injection, schedule: Q01DX009 (ip), vehicle: Klucel (hydroxypropylcellulose) (HPC)): 114 % of control
- T/C (endpoint: mean tumor weight, dose: 200.0 micrograms/kg/injection, schedule: Q01DX009 (ip), vehicle: Klucel (hydroxypropylcellulose) (HPC)): 151 % of control

Compound: COC12C(COC(N)=O)C3=C(C(=O)C(C)=C(N)C3=O)N1CC1C2N1C (stereo not drawn)
- T/C (endpoint: median tumor weight (est.), dose: 2.0 mg/kg/injection, schedule: Q07DX005 (ip), vehicle: suspension in saline): 53 % of control
- T/C (endpoint: median tumor weight (est.), dose: 4.0 mg/kg/injection, schedule: Q07DX005 (ip), vehicle: suspension in saline): 73 % of control
- T/C (endpoint: median tumor weight (est.), dose: 8.0 mg/kg/injection, schedule: Q07DX005 (ip), vehicle: suspension in saline): 3 % of control

Compound: C=C(C)C1C2CC3(C)C4(CO4)C4OC4C3(O)C1C(=O)O2 (stereo not drawn)
- T/C (endpoint: median tumor weight change, dose: 1.25 mg/kg/injection, schedule: Q01DX001 (ip), vehicle: Klucel (hydroxypropylcellulose) (HPC)): 85 % of control

Compound: CC[As](=O)(O)CC
- T/C (endpoint: mean tumor weight, dose: 12.5 mg/kg/injection, schedule: Q07DX005 (ip), vehicle: saline): 100 % of control
- T/C (endpoint: mean tumor weight, dose: 12.5 mg/kg/injection, schedule: Q07DX007 (ip), vehicle: saline): 70 % of control
- T/C (endpoint: mean tumor weight, dose: 25.0 mg/kg/injection, schedule: Q07DX005 (ip), vehicle: saline): 34 % of control
- T/C (endpoint: mean tumor weight, dose: 25.0 mg/kg/injection, schedule: Q07DX007 (ip), vehicle: saline): 56 % of control
- T/C (endpoint: mean tumor weight, dose: 50.0 mg/kg/injection, schedule: Q07DX007 (ip), vehicle: saline): 38 % of control
- T/C (endpoint: mean tumor weight, dose: 100.0 mg/kg/injection, schedule: Q07DX005 (ip), vehicle: saline): 98 % of control
- T/C (endpoint: mean tumor weight, dose: 100.0 mg/kg/injection, schedule: Q07DX007 (ip), vehicle: saline): 111 % of control
- T/C (endpoint: mean tumor weight, dose: 200.0 mg/kg/injection, schedule: Q07DX005 (ip), vehicle: saline): 41 % of control
- T/C (endpoint: mean tumor weight, dose: 200.0 mg/kg/injection, schedule: Q07DX007 (ip), vehicle: saline): 53 % of control
- T/C [4]: 96 % of control and 119 % of control
- T/C [5]: 62 % of control and 79 % of control
- T/C (endpoint: median tumor weight (est.), dose: 50.0 mg/kg/injection, schedule: Q07DX005 (ip), vehicle: saline): 121 % of control
- T/C (endpoint: median tumor weight (est.), dose: 200.0 mg/kg/injection, schedule: Q07DX005 (ip), vehicle: saline): 20 % of control and 41 % of control and 43 % of control

Compound: O=C1C(=O)c2ccccc2C(O)=C1CC=C(Cl)Cl
- T/C (endpoint: median tumor weight (est.), dose: 6.25 mg/kg/injection, schedule: Q07DX005 (ip), vehicle: Klucel (hydroxypropylcellulose) (HPC)): 112 % of control
- T/C [1]: 52 % of control
- T/C [2]: 99 % of control
- T/C [3]: 93 % of control
- T/C (endpoint: median tumor weight (est.), dose: 100.0 mg/kg/injection, schedule: Q07DX005 (ip), vehicle: Klucel (hydroxypropylcellulose) (HPC)): 61 % of control

Compound: CCCCCCCC(=O)N/N=C(\CO)[C@]1(O)Cc2c(O)c3c(c(O)c2[C@@H](OC2CC(N)C(O)C(C)O2)C1)C(=O)c1c(OC)cccc1C3=O (stereo partly drawn)
- T/C (endpoint: median tumor weight (est.), dose: 1.5 mg/kg/injection, schedule: Q07DX005 (ip), vehicle: saline): 76 % of control
- T/C (endpoint: median tumor weight (est.), dose: 3.0 mg/kg/injection, schedule: Q07DX005 (ip), vehicle: saline): 110 % of control
- T/C (endpoint: median tumor weight (est.), dose: 6.0 mg/kg/injection, schedule: Q07DX005 (ip), vehicle: saline): 37 % of control
- T/C (endpoint: median tumor weight (est.), dose: 12.0 mg/kg/injection, schedule: Q07DX005 (ip), vehicle: saline): 4 % of control

Compound: O=c1[nH]c(=O)n(C2OC(CO)C(O)C2O)cc1F (stereo not drawn)
- T/C (endpoint: median tumor weight (est.), dose: 1.56 mg/kg/injection, schedule: Q07DX005 (ip), vehicle: saline): 79 % of control
- T/C (endpoint: median tumor weight (est.), dose: 3.12 mg/kg/injection, schedule: Q07DX005 (ip), vehicle: saline): 103 % of control
- T/C (endpoint: median tumor weight (est.), dose: 6.25 mg/kg/injection, schedule: Q07DX005 (ip), vehicle: saline): 75 % of control
- T/C [4]: 45 % of control
- T/C [5]: 11 % of control

Compound: C=CC12COC(=O)C(=C)C1C1OC(=O)C(=C)C1C(O)C2 (stereo not drawn)
- T/C (endpoint: mean tumor weight, dose: 5.0 mg/kg/injection, schedule: Q07DX006 (ip), vehicle: saline): 78 % of control

Compound: Cc1ccoc1
- T/C (endpoint: median tumor weight change, dose: 20.8 mg/kg/injection, schedule: Q03HX003 (ip), vehicle: saline with Tween-80): 66 % of control
- T/C (endpoint: median tumor weight change, dose: 41.6 mg/kg/injection, schedule: Q03HX003 (ip), vehicle: saline with Tween-80): 82 % of control
- T/C (endpoint: median tumor weight change, dose: 83.3 mg/kg/injection, schedule: Q03HX003 (ip), vehicle: saline with Tween-80): 62 % of control
- T/C (endpoint: median tumor weight change, dose: 166.6 mg/kg/injection, schedule: Q03HX003 (ip), vehicle: saline with Tween-80): 73 % of control
